Reference: the supplement of paper PMC10307832

Tests used:
Experiment in all cases: relative viability (nuclei count vs DMSO), 5 days (fraction); higher = more cells survive
Alpelisib + Pictilisib = compound: Cc1nc(NC(=O)N2CCC[C@H]2C(N)=O)sc1-c1ccnc(C(C)(C)C(F)(F)F)c1 [Alpelisib] + CS(=O)(=O)N1CCN(Cc2cc3nc(-c4cccc5[nH]ncc45)nc(N4CCOCC4)c3s2)CC1 [Pictilisib] (partner 1 µM)
Summary of the method: (§1)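 One day after seeding in 1536-well plates, lung cancer cell lines were dosed by pin tool. Dosing was either single-drug or a fixed anchor-drug dose plus five library-drug doses (not always all listed) in √10 steps. After 5 days, nuclei were stained in one fix-and-stain step and counted on 4× images, and relative viability is the nuclei count of treated wells over that of vehicle wells, given as the median of duplicate plates.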

Vemurafenib + Lapatinib = compound: CCCS(=O)(=O)Nc1ccc(F)c(C(=O)c2c[nH]c3ncc(-c4ccc(Cl)cc4)cc23)c1F [Vemurafenib] + CS(=O)(=O)CCNCc1ccc(-c2ccc3ncnc(Nc4ccc(OCc5cccc(F)c5)c(Cl)c4)c3c2)o1 [Lapatinib] (partner 2 µM)
Summary of the method: as §1

[1] = compound: CCCS(=O)(=O)Nc1ccc(F)c(C(=O)c2c[nH]c3ncc(-c4ccc(Cl)cc4)cc23)c1F [Vemurafenib] + CC(=O)c1c(C)c2cnc(Nc3ccc(N4CCNCC4)cn3)nc2n(C2CCCC2)c1=O [Palbociclib] (partner 0.5 µM)
Summary of the method: as §1

Vemurafenib + Dasatinib = compound: CCCS(=O)(=O)Nc1ccc(F)c(C(=O)c2c[nH]c3ncc(-c4ccc(Cl)cc4)cc23)c1F [Vemurafenib] + Cc1nc(Nc2ncc(C(=O)Nc3c(C)cccc3Cl)s2)cc(N2CCN(CCO)CC2)n1 [Dasatinib] (partner 0.075 µM)
Summary of the method: as §1

| Cell Line | relative viability (Alpelisib + Pictilisib; first compound 0.04 µM) | relative viability (Alpelisib + Pictilisib; first compound 0.1265 µM) | relative viability (Alpelisib + Pictilisib; first compound 0.4 µM) | relative viability (Alpelisib + Pictilisib; first compound 1.265 µM) | relative viability (Alpelisib + Pictilisib; first compound 4 µM) | relative viability (Vemurafenib + Lapatinib; first compound 0.03162 µM) | relative viability (Vemurafenib + Lapatinib; first compound 0.1 µM) | relative viability (Vemurafenib + Lapatinib; first compound 0.3162 µM) | relative viability (Vemurafenib + Lapatinib; first compound 1 µM) | relative viability ([1]; first compound 0.03162 µM) | relative viability ([1]; first compound 0.1 µM) | relative viability ([1]; first compound 0.3162 µM) | relative viability ([1]; first compound 1 µM) | relative viability (Vemurafenib + Dasatinib; first compound 0.03162 µM) | relative viability (Vemurafenib + Dasatinib; first compound 0.1 µM) | relative viability (Vemurafenib + Dasatinib; first compound 1 µM) | relative viability (Vemurafenib + Dasatinib; first compound 0.3162 µM) |
| --- | --- | --- | --- | --- | --- | --- | --- | --- | --- | --- | --- | --- | --- | --- | --- | --- | --- |
| IA-LM | 0.265 | 0.412 | 0.432 | 0.335 | 0.327 | 0.764 | 0.715 | 0.684 | 0.608 |  |  |  |  |  |  |  |  |
| LC-2-ad | 0.443 | 0.435 | 0.434 | 0.296 | 0.415 | 0.881 | 0.928 | 0.778 | 0.866 | 0.449 | 0.466 | 0.481 | 0.442 | 0.592 | 0.669 | 0.559 |  |
| LCLC-97TM1 | 0.178 | 0.175 | 0.179 | 0.195 | 0.21 | 0.825 | 0.981 | 1.63 | 0.696 |  | 0.22 | 0.22 | 0.207 | 0.76 | 0.853 | 0.685 | 1.05 |
| LCLC-103H | 0.721 | 0.695 | 0.506 | 0.56 | 0.526 |  |  |  |  | 0.426 | 0.448 | 0.501 | 0.467 | 0.45 | 0.505 | 0.388 | 0.317 |
| LK-2 | 0.531 | 0.571 | 0.643 | 0.524 | 0.578 | 0.674 | 0.867 | 0.835 | 0.505 | 0.621 | 0.599 | 0.602 | 0.311 | 0.306 | 0.306 | 0.223 | 0.33 |
| LOU-NH91 | 0.537 | 0.504 | 0.559 | 0.52 | 0.457 | 0.683 | 0.78 |  | 0.781 | 0.515 | 0.497 | 0.536 | 0.551 | 0.509 |  | 0.572 |  |
| LU99A | 0.293 | 0.278 | 0.374 | 0.296 | 0.251 | 0.878 | 0.985 | 1.03 | 0.916 | 0.386 | 0.401 |  | 0.373 | 0.425 | 0.554 | 0.431 | 0.389 |
| LXF-289 | 0.762 | 0.805 | 0.855 | 0.707 | 0.733 | 0.892 | 0.883 | 0.87 | 0.965 | 0.548 | 0.526 | 0.601 | 0.667 | 0.203 | 0.236 | 0.181 | 0.0972 |
| NCI-H23 | 0.605 | 0.493 | 0.528 | 0.419 | 0.464 | 0.87 | 1.16 | 0.749 | 1.36 | 0.495 | 0.479 | 0.498 | 0.536 | 0.754 | 0.77 | 0.434 | 0.737 |
| NCI-H322M | 0.491 | 0.553 | 0.544 | 0.473 | 0.478 | 0.583 |  | 0.801 | 0.491 | 0.444 |  | 0.557 | 0.475 | 0.241 |  | 0.229 |  |
| NCI-H358 | 0.382 | 0.316 | 0.379 | 0.268 | 0.205 | 0.408 |  | 0.505 | 0.407 | 0.113 | 0.139 | 0.175 | 0.132 | 0.142 | 0.116 | 0.203 | 0.22 |
| NCI-H441 | 0.438 | 0.448 | 0.547 | 0.382 | 0.41 |  |  |  |  | 0.23 | 0.185 | 0.241 | 0.237 | 0.565 | 0.663 | 0.542 | 0.838 |
| NCI-H460 | 0.388 | 0.389 | 0.378 | 0.345 | 0.297 | 0.929 | 1.08 | 0.82 | 0.926 | 0.146 | 0.152 | 0.108 | 0.203 | 0.469 | 0.545 | 0.537 | 0.341 |
| NCI-H520 | 0.244 | 0.316 | 0.318 | 0.304 | 0.289 | 0.759 | 0.839 | 0.859 | 0.751 | 0.222 | 0.188 | 0.221 | 0.222 | 0.188 | 0.189 | 0.197 | 0.203 |
| NCI-H522 |  |  |  |  |  |  |  |  |  | 0.822 | 0.743 | 0.857 | 1.26 | 1.08 | 0.718 | 0.855 | 0.875 |
| NCI-H596 | 0.404 | 0.413 | 0.362 | 0.399 | 0.358 | 1.04 | 1.03 | 0.874 | 1.07 |  |  |  |  | 0.567 | 0.66 | 0.515 | 0.549 |
| NCI-H647 | 0.446 | 0.385 | 0.402 | 0.294 | 0.378 | 0.951 | 1.06 | 0.852 | 0.949 | 0.375 | 0.434 | 0.404 | 0.394 | 0.16 | 0.198 | 0.188 | 0.0963 |
| NCI-H1299 | 0.871 | 0.76 | 0.793 | 0.796 | 0.599 | 0.965 | 0.93 | 0.885 | 0.952 |  |  |  |  |  |  |  |  |
| NCI-H1563 | 0.647 | 0.734 | 0.67 | 0.613 | 0.676 | 0.842 | 0.886 | 0.84 | 0.961 |  |  |  |  | 0.526 | 0.432 | 0.419 | 0.465 |
| NCI-H1623 |  |  |  |  |  |  |  |  |  |  |  |  |  | 0.565 |  | 0.485 | 0.716 |
| NCI-H1648 |  |  |  |  |  |  |  |  |  |  | 0.277 | 0.341 | 0.294 |  |  |  |  |
| NCI-H1703 | 0.254 | 0.249 | 0.227 | 0.235 | 0.26 | 1.19 | 0.916 | 0.924 | 0.987 |  |  |  |  |  |  |  |  |
| NCI-H2342 |  |  |  |  |  |  |  |  |  | 0.512 | 0.461 | 0.541 | 0.548 | 0.313 | 0.304 | 0.326 | 0.266 |
| SW 900 |  |  |  |  |  |  |  |  |  | 0.563 | 0.43 | 0.549 | 0.488 | 0.827 | 0.61 | 0.505 | 0.538 |
